According to US20260184726A1, “HETEROCYCLIC COMPOUNDS AS KINASE INHIBITORS, COMPOSITIONS, AND METHODS OF USE THEREOF” (JS INNOMED HOLDINGS LTD., priority 2022, published 2026):

What was measured:
BAF3-KIF5B-RET cells = molecular target: T1, BAF3-KIF5B-RET cells (Homo sapiens, UniProt P07949); test: BAF3-KIF5B-RET Cell Proliferation Assay (CellTiter-Glo); assay type: cell-based; conditions: growth inhibition, 72 hours; Table 2; read-out: BA/F3-KIF5B-RET Cellular activity
T1 construct: fused on or other part: P33176 (Kinesin-1 heavy chain)
T1 sequence (P07949 whole entry, change not shown, the tested form may be a part): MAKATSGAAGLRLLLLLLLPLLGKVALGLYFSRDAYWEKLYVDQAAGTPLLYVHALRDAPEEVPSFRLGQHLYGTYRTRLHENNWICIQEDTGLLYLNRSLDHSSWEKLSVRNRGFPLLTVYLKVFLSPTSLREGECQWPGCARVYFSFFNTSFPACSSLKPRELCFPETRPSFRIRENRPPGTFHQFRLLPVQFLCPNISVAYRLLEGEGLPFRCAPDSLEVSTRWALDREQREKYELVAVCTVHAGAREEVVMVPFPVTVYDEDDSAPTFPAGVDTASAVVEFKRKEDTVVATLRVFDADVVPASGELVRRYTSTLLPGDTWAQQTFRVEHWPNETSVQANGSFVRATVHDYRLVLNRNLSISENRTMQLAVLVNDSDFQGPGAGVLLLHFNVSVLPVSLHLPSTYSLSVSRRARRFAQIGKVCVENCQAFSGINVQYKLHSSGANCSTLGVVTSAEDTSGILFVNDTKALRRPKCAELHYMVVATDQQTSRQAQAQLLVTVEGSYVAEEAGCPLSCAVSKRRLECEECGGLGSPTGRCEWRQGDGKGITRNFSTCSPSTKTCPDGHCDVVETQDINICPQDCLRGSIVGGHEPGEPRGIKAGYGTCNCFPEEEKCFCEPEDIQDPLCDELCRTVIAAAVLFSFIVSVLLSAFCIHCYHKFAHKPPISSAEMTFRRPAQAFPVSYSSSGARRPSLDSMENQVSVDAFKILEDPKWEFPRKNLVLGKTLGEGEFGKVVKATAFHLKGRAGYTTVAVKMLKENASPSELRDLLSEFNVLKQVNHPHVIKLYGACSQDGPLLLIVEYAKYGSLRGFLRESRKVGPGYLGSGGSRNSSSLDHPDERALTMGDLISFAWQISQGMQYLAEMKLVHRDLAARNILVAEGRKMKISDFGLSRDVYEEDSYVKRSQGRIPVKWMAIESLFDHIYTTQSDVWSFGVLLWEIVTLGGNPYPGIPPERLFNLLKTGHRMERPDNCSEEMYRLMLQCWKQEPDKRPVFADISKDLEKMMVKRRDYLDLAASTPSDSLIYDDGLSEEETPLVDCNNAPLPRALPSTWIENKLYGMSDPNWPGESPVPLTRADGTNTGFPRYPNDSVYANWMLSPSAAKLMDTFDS
Method: Compounds disclosed herein were tested for the inhibition of RET by a cancer cell proliferation assay commonly known as CellTiter-Glo assay. In this assay, a complete media was prepared by adding 10% fetal bovine serum to RPMI-1640 medium (Life technology) for RET-driven cancer cells (BAF3-FIF5B-RET, Ba/F3-KIF5B-RET-G810R, Ba/F3-TEL-RET-M918T or Ba/F3-KIF5B-RET-V804M). Individual RET-driven type of cells were added to each of 88 wells of a 96 well plate at a seeding density of 2,000 cells/well/95 μL. The cells were allowed to attach to the plate by incubating at 37° C. for 24 hours. The compound was dissolved in DMSO (SIGMA). A solution of test compound was prepared in complete media by serial dilution to obtain the following concentrations: 20 μM, 6.67 μM, 2.22 μM, 0.74 μM, 0.25 μM, 0.082 μM, 0.027 μM, 0.0091 μM and 0.0030 μM. The test compound solution (5 μL) was added to each of 80 cell-containing wells. The final concentrations of the compound were following: 1 μM, 0.33 μM, 0.11 μM, 0.037 μM, 0.012 μM, 0.0041 μM, 0.0014 μM, 0.00046 μM and 0.00015 μM. The final concentration of DMSO is 0.1%. To the 8 remaining cell-containing wells, only complete media (containing 0.1% DMSO) was added to form a control group in order to measure maximal proliferation. To the remaining 8 empty wells, complete media was added to for a vehicle control group in order to measure background. The plates were incubated at 37° C. for 72 hours. 50 μl of CellTiter-Glo® Reagent was added to each well. Mix contents for 2 minutes on an orbital shaker to induce cell lysis. Incubate at room temperature for 10 minutes to stabilize luminescent signal. Record luminescence on Paradigm. Cell viability (CV %) was calculated relative to vehicle (DMSO) treated control wells. The IC50 was calculated using GraphPad Prism.

BAF3 cells = test: BAF3 Cell Proliferation Assay (CellTiter-Glo, without RET driven, IL-3); assay type: cell-based; conditions: Mus musculus; growth inhibition in BAF3 cells, 72 hours, with IL-3; read-out: BAF3 Cellular Activity
Method: Compounds disclosed herein were tested for the inhibition BAF3 cells proliferation without RET driven by CellTiter-Glo assay. In this assay, a complete media was prepared by adding 10% fetal bovine serum and 1 ng/ml IL-3 to RPMI-1640 medium (Life technology) for BAF3 cells. BAF3 cells were added to each of 88 wells of a 96 well plate at a seeding density of 2,000 cells/well/95 μL. The cells were allowed to attach to the plate by incubating at 37° C. for 24 hours. The compound was dissolved in DMSO (SIGMA). A solution of test compound was prepared in complete media by serial dilution to obtain the following concentrations: 200 μM, 66.7 μM, 22.2 μM, 7.4 μM, 2.5 μM, 0.82 μM, 0.27 μM, 0.091 μM and […]. The test compound solution (5 μL) was added to each of 80 cell-containing wells. The final concentrations of the compound were following: 10 μM, 3.33 μM, 1.11 μM, 0.37 μM, 0.12 μM, 0.041 μM, 0.014 μM, 0.0046 μM and 0.0015 μM. The final concentration of DMSO is 0.1%. To the 8 remaining cell-containing wells, only complete media (containing 0.1% DMSO) was added to form a control group in order to measure maximal proliferation. To the remaining 8 empty wells, complete media was added to for a vehicle control group in order to measure background. The plates were incubated at 37° C. for 72 hours. 50 μl of CellTiter-Glo® Reagent was added to each well. The contents were mixed for 2 minutes on an orbital shaker to induce cell lysis, and then were incubated at room temperature for 10 minutes to stabilize luminescent signal. Luminescence was recorded on Paradigm. Cell viability (CV %) was calculated relative to vehicle (DMSO) treated control wells. The IC50 was calculated using GraphPad Prism.

Compound | GI50 (BAF3-KIF5B-RET cells) [µM] | IC50 (BAF3 cells) [µM]
COc1ccc(CN2C3CC2CN(c2cnc(-c4cc(-c5ccc(C(C)(C)O)cn5)cn5ncc(C#N)c45)cn2)C3)cn1 [Example 1, 6-(5-(2-hydroxypropan-2-yl)pyridin-2-yl)-4-(5-(6-((6-methoxypyridin-3-yl)methyl)-3,6-diazabicyclo[3.1.1]heptan-3-yl)pyrazin-2-yl)pyrazolo[1,5-a]pyridine-3-carbonitrile] | 0.0018 | 1.02
COc1ccc(C(=O)NC23CC4CC(C2)N(c2cnc(-c5cc(-c6ccc(C(C)(C)O)cn6)cn6ncc(C#N)c56)cn2)C(C4)C3)cn1 [Example 2, N-((1R,3S,5s,7s)-2-(5-(3-cyano-6-(5-(2-hydroxypropan-2-yl)pyridin-2-yl)pyrazolo[1,5-a]pyridin-4-yl)pyrazin-2-yl)-2-azaadamantan-5-yl)-6-methoxynicotinamide] | 0.0089 | 0.362
CC(C)(O)c1ccc(-c2cc(-c3ccc(N4C[C@@H]5[C@H](C4)[C@@H]5NC(=O)c4ncccc4Cl)nc3)c3c(C#N)cnn3c2)nc1 [Example 3, 3-chloro-N-((1R,5S,6r)-3-(5-(3-cyano-6-(5-(2-hydroxypropan-2-yl)pyridin-2-yl)pyrazolo[1,5-a]pyridin-4-yl)pyridin-2-yl)-3-azabicyclo[3.1.0]hexan-6-yl)picolinamide] | 0.11 | > 10
CC(C)(O)c1ccc(-c2cc(-c3cnc(N4C[C@@H]5C[C@@](C)(NC(=O)c6ncccc6Cl)C[C@@H]5C4)cn3)c3c(C#N)cnn3c2)nc1 [Example 6, 3-chloro-N-((3aR,5s,6aS)-2-(5-(3-cyano-6-(5-(2-hydroxypropan-2-yl)pyridin-2-yl)pyrazolo[1,5-a]pyridin-4-yl)pyrazin-2-yl)-5-methyloctahydrocyclopenta[c]pyrrol-5-yl)picolinamide] | 0.0035 | 0.0386
COc1ccc(CN2C3CC2CN(c2ccc(-c4cc(-c5cncc(C(C)(C)O)c5)cn5ncc(C#N)c45)cn2)C3)cn1 [Example 7, 6-(5-(2-hydroxypropan-2-yl)pyridin-3-yl)-4-(6-(6-((6-methoxypyridin-3-yl)methyl)-3,6-diazabicyclo[3.1.1]heptan-3-yl)pyridin-3-yl)pyrazolo[1,5-a]pyridine-3-carbonitrile] | 0.0481 | > 10
COc1ccc(CN2C3CC2CN(c2ccc(-c4cc(-c5ccc(C(C)(C)N)nc5)cn5ncc(C#N)c45)cn2)C3)cn1 [Example 14, 6-(6-(2-aminopropan-2-yl)pyridin-3-yl)-4-(6-(6-((6-methoxypyridin-3-yl)methyl)-3,6-diazabicyclo[3.1.1]heptan-3-yl)pyridin-3-yl)pyrazolo[1,5-a]pyridine-3-carbonitrile] | 0.0028 | 1
COc1ccc(CN2C3CC2CN(c2ccc(-c4cc(-c5cnc(C(C)(C)O)cn5)cn5ncc(C#N)c45)cn2)C3)cn1 [Example 15, 6-(5-(2-hydroxypropan-2-yl)pyrazin-2-yl)-4-(6-(6-((6-methoxypyridin-3-yl)methyl)-3,6-diazabicyclo[3.1.1]heptan-3-yl)pyridin-3-yl)pyrazolo[1,5-a]pyridine-3-carbonitrile] | 0.0039 | 2.6
COc1ccc(CN2C3CC2CN(c2ccc(-c4cc(-c5ccc(C(C)(C)N)cn5)cn5ncc(C#N)c45)cn2)C3)cn1 [Example 16, 6-(5-(2-aminopropan-2-yl)pyridin-2-yl)-4-(6-(6-((6-methoxypyridin-3-yl)methyl)-3,6-diazabicyclo[3.1.1]heptan-3-yl)pyridin-3-yl)pyrazolo[1,5-a]pyridine-3-carbonitrile] | 0.0022 | 1.08
COc1ccc(CN2C3CC2CN(c2ccc(-c4cc(-c5ccc(C6(N)CC6)cn5)cn5ncc(C#N)c45)cn2)C3)cn1 [Example 17, 6-(5-(1-aminocyclopropyl)pyridin-2-yl)-4-(6-(6-((6-methoxypyridin-3-yl)methyl)-3,6-diazabicyclo[3.1.1]heptan-3-yl)pyridin-3-yl)pyrazolo[1,5-a]pyridine-3-carbonitrile] | 0.0042 | 2.77
COc1ccc(CN2C3CC2CN(c2ccc(-c4cc(-c5ccc(C(C)(C)O)nn5)cn5ncc(C#N)c45)cn2)C3)cn1 [Example 19, 6-(6-(2-hydroxypropan-2-yl)pyridazin-3-yl)-4-(6-(6-((6-methoxypyridin-3-yl)methyl)-3,6-diazabicyclo[3.1.1]heptan-3-yl)pyridin-3-yl)pyrazolo[1,5-a]pyridine-3-carbonitrile] | 0.0017 | 1.26
COc1ccc(CN2C3CC2CN(c2cnc(-c4cc(-c5ccc(C(C)(C)O)nn5)cn5ncc(C#N)c45)cn2)C3)cn1 [Example 20, 6-(6-(2-hydroxypropan-2-yl)pyridazin-3-yl)-4-(5-(6-((6-methoxypyridin-3-yl)methyl)-3,6-diazabicyclo[3.1.1]heptan-3-yl)pyrazin-2-yl)pyrazolo[1,5-a]pyridine-3-carbonitrile] | 0.0067 | 1.48
CC(C)(O)c1ccc(-c2cc(-c3ccc(N4C[C@@H]5[C@H](C4)[C@H]5NC(=O)c4ncccc4Cl)nc3)c3c(C#N)cnn3c2)nc1 [Example 21, 3-chloro-N-((1R,5S,6s)-3-(5-(3-cyano-6-(5-(2-hydroxypropan-2-yl)pyridin-2-yl)pyrazolo[1,5-a]pyridin-4-yl)pyridin-2-yl)-3-azabicyclo[3.1.0]hexan-6-yl)picolinamide] | 0.0288 | 0.351
COc1ccc(CN2C3CC2CN(c2ccc(-c4cc(-c5ccc(C(C)(C)O)cc5)cn5ncc(C#N)c45)cn2)C3)cn1 [Example 22, 6-(4-(2-hydroxypropan-2-yl)phenyl)-4-(6-(6-((6-methoxypyridin-3-yl)methyl)-3,6-diazabicyclo[3.1.1]heptan-3-yl)pyridin-3-yl)pyrazolo[1,5-a]pyridine-3-carbonitrile] | 0.0007 | 0.756
COc1ccc(CN2C3CC2CN(c2ccc(-c4cc(-c5ncc(C(C)(C)O)cc5F)cn5ncc(C#N)c45)cn2)C3)cn1 [Example 24, 6-(3-fluoro-5-(2-hydroxypropan-2-yl)pyridin-2-yl)-4-(6-(6-((6-methoxypyridin-3-yl)methyl)-3,6-diazabicyclo[3.1.1]heptan-3-yl)pyridin-3-yl)pyrazolo[1,5-a]pyridine-3-carbonitrile] | 0.0035 | 2.54
COc1ccc(C(=O)N2C3CC2CN(c2ccc(-c4cc(-c5ccc(C(C)(C)O)cn5)cn5ncc(C#N)c45)cn2)C3)cn1 [Example 25, 6-(5-(2-hydroxypropan-2-yl)pyridin-2-yl)-4-(6-(6-(6-methoxynicotinoyl)-3,6-diazabicyclo[3.1.1]heptan-3-yl)pyridin-3-yl)pyrazolo[1,5-a]pyridine-3-carbonitrile] | 0.0027 | 6.65
COc1ccc(CN2C3CC2CN(c2ccc(-c4cc(-c5cc(C(C)(C)O)nn5C)cn5ncc(C#N)c45)cn2)C3)cn1 [Example 26, 6-(3-(2-hydroxypropan-2-yl)-1-methyl-1H-pyrazol-5-yl)-4-(6-(6-((6-methoxypyridin-3-yl)methyl)-3,6-diazabicyclo[3.1.1]heptan-3-yl)pyridin-3-yl)pyrazolo[1,5-a]pyridine-3-carbonitrile] | 0.0468 | > 10
